The assay addresses T1, human Glucose-dependent Insulinotropic Polypeptide Receptor (hGIPR) (Homo sapiens, UniProt P48546).
T1 sequence (P48546 22-466): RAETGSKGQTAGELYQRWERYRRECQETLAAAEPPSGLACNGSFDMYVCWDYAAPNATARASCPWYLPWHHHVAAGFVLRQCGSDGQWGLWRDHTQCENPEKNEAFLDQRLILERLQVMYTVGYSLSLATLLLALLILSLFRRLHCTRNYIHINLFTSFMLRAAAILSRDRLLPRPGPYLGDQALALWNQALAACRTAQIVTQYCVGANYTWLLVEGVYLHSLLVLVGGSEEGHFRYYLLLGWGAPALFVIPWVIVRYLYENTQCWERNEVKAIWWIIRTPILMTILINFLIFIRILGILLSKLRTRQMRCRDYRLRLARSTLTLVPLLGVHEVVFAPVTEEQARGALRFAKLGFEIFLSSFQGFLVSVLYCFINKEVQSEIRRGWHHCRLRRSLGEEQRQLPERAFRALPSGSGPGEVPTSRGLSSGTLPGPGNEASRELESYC
The experiment in a line: Functional in vitro GIPR antagonist potency assay (intracellular cAMP, HTRF, hGIP stimulation at EC80). It is filed as cell-based. Here is the method:
Example AA. Functional In Vitro GIPR Antagonist Potency Assay
The functional in vitro antagonist potency for test compounds was determined by monitoring intracellular cyclic adenosine monophosphate (cAMP) levels in Chinese hamster ovary (CHO)—K1 cells stably expressing the human Glucose-dependent Insulinotropic Polypeptide Receptor (hGIPR). Following agonist activation, hGIPR associates with the G-protein complex causing the Gas subunit to exchange bound guanosine diphosphate (GDP) for guanosine triphosphate (GTP), followed by dissociation of the Gas-GTP complex. The activated Gas subunit can couple to downstream effectors to regulate the levels of second messengers or cAMP within the cell. Thereby, determination of intracellular cAMP levels allows for pharmacological characterization. Intracellular cAMP levels are quantitated using a homogenous assay utilizing the Homogeneous Time Resolved Fluorescence (HTRF) technology from Perkin Elmer. The method is a competitive immunoassay between native cAMP produced by the cells and cAMP labelled with the acceptor dye, d2. The two entities compete for binding to a monoclonal anti-cAMP antibody labeled with cryptate. The specific signal is inversely proportional to the concentration of cAMP in the cells.
Test compounds were solubilized to a concentration of 30 mM in 100% dimethyl sulfoxide (DMSO). An 11-point dilution series using 1 in 3.162-fold serial dilutions was created in 100% DMSO with a top concentration of 8 mM. The serially diluted compound was spotted with an Echo Acoustic liquid handler (Beckman Coulter) into a 384-well assay plate (Corning, Cat No. 3824) at 50 nL/well with duplicate points at each concentration, at a 200× final assay concentration (FAC). The final compound concentration range in the assay was 40 μM to […], with a final DMSO concentration of 0.5%.
Frozen assay-ready vials (at 1×10^7 cells/vial) of CHO-K1 cells stably expressing the Gs-coupled human GIPR receptor (Eurofins, DiscoverX, Cat No. 95-0146C2) were thawed, counted, and resuspended in assay buffer consisting of Hank's Balanced Salt Solution (HBSS, Lonza Cat No. 10-527) containing 20 mM (4-(2-hydroxyethyl)-1-piperazineethanesulfonic acid (HEPES, Lonza, Cat No. 17-737E), 0.1% bovine serum albumin (BSA, Sigma, Cat No. A7979), and 200 μM 3-isobutyl-1-methylxanthine (IBMX, Sigma, Cat No. 15879) at a density of 4×10^5 cells/mL. Cells were added to assay plate (5 μL/well of 4×10^5 cells/mL stock for 2,000 cells/well final) containing 50 nL of 200×FAC test compound, and incubated at 37° C. (95% O2: 5% CO2) for 2 hours, with micro-clime lids (Labcyte, Cat No. LLS-0310). Following the 2-hour cell and compound incubation, a stimulation mix comprised of hGIPR agonist human glucose-dependent insulinotropic polypeptide (hGIP, full length, Sigma Cat No. G2269) in assay buffer/0.1% DMSO was added to the assay plate (5 μL/well) at an estimated EC80 FAC (based on previous hGIP agonist curves) and incubated for another 30 minutes with micro-clime lids at 37° C. (95% O2: 5% CO2), after which intracellular cAMP levels were quantified as per Perkin Elmer's protocol (5 μL of d2 and then 5 μL cryptate, incubated for 1 hour at room temperature). Emission spectra of samples were measured on a Pherastar plate reader (BMG Labtech Inc) using a HTRF protocol (excitation, 320 nm; emission, 665 nm/620 nm).
(95% O2: 5% CO2), with a micro-clime lid. Following the 2-hour cell and DMSO incubation, a hGIP concentration response curve at 2×FAC (12-point curve using 1 in 3 serial dilutions, with triplicate points at each concentration, 100 nM final top concentration) in assay buffer/1% DMSO was added (5 μL/well) and incubated for a further 30 minutes with a micro-clime lid at 37° C. (95% O2: 5% CO2), after which intracellular cAMP levels were quantified and samples measured as described previously. Experiments passed quality control if the agonist concentration used for stimulation fell between the on-the-day EC50-EC90. […]
(In general: In TR-FRET formats the signal depends on donor and acceptor labels being close together.)

The mark [1] stands for this setting: geometric mean, CHO-K1 cells stably expressing human GIPR, cAMP after hGIP stimulation at EC80.

Where two headings read alike, the source gives them in different places.

The IC50 is the concentration that inhibits the measured activity by half. A higher IC50 goes with a need for much substance.

With `Cc1cc(-n2ccc(NC(=O)[C@H]3CCCN3C(=O)Nc3ccc(C(C)C)cc3)n2)c(F)cc1C(=O)O` [Example 50, 5-fluoro-2-methyl-4-{3-[(1-{[4-(propan-2-yl)phenyl]carbamoyl}-D-prolyl)amino]-1H-pyrazol-1-yl}benzoic acid], the IC50 under setting [1] was found to be 21 nM. Regarding `Cc1cc(-n2ccc(NC(=O)[C@H]3CCCN3C(=O)CCc3ccc(C(F)(F)F)cc3)n2)ccc1C(=O)O` [Example 18, 2-Methyl-4-{3-[(1-{3-[4-(trifluoromethyl)phenyl]propanoyl}-D-prolyl)amino]-1H-pyrazol-1-yl}benzoic Acid], the IC50 under setting [1] amounted to 250 nM. The same measure, in the same setting: the value for `Cc1cc(-n2ccc(NC(=O)[C@H]3CCCN3C(=O)NCc3ccc(C(F)(F)F)c(F)c3)n2)ccc1C(=O)O` [Example 48, 4-(3-{[1-{{[3-fluoro-4-(trifluoromethyl)phenyl]methyl}carbamoyl)-D-prolyl]amino}-1H-pyrazol-1-yl)-2-methylbenzoic acid] was 150 nM; that for `Cc1cc(-n2ccc(NC(=O)[C@H]3CCCN3C(=O)Nc3ccc(C(C)C)c(F)c3)n2)ccc1C(N)=O` [Example 16, (2R)—N^2-[1-(4-Carbamoyl-3-methylphenyl)-1H-pyrazol-3-yl]-N^1-[3-fluoro-4-(propan-2-yl)phenyl]pyrrolidine-1,2-dicarboxamide] was 110 nM. `Cc1cc(-n2ccc(NC(=O)[C@H]3CCCN3C(=O)Nc3ccc(OC(F)(F)F)cc3)n2)ccc1C(N)=O` [Example 41] yielded an IC50 under setting [1] of 98 nM. For `Cc1cc(-n2ccc(NC(=O)[C@H]3CCCN3C(=O)Nc3ccc(C(C)C)c(C)c3)n2)ccc1C(=O)O` [Example 6, 2-Methyl-4-{3-[(1-{[3-methyl-4-(propan-2-yl)phenyl]carbamoyl}-D-prolyl)amino]-1H-pyrazol-1-yl}benzoic Acid], half-maximal inhibition under setting [1] (IC50) was put at 4.1 nM. `CC(C)c1ccc(NC(=O)N2CCC[C@@H]2C(=O)Nc2ccn(-c3ccc(C(N)=O)cc3F)n2)cc1` [Example 36] had an IC50 under setting [1] of 42 nM. This IC50 is about 10-fold higher than that of the compound before.

On to `Cc1c(C(=O)O)ccc(-n2ccc(NC(=O)[C@H]3CCCN3C(=O)Nc3ccc(OC(F)(F)F)cc3)n2)c1F` [Example 62, 3-fluoro-2-methyl-4-{3-[(1-{[4-(trifluoromethoxy)phenyl]carbamoyl}-D-prolyl)amino]-1H-pyrazol-1-yl}benzoic acid], for which the IC50 under setting [1] was found to be 7.6 nM. On to `Cc1cc(-n2ccc(NC(=O)[C@H]3CCCN3C(=O)Nc3ccc(C(F)(F)F)c(F)c3)n2)ccc1C(=O)O` [Example 9, 4-{3-[(1-{[3-Fluoro-4-(trifluoromethyl)phenyl]carbamoyl}-D-prolyl)amino]-1H-pyrazol-1-yl}-2-methylbenzoic Acid], for which the IC50 stood at 19 nM.

Take `Cc1cc(C(=O)O)ccc1-n1ccc(NC(=O)[C@H]2CCCN2C(=O)Nc2ccc(C(C)C)cc2)n1` [Example 25, 3-methyl-4-{3-[(1-{[4-(propan-2-yl)phenyl]carbamoyl}-D-prolyl)amino]-1H-pyrazol-1-yl}benzoic acid]: under setting [1], the midpoint of inhibition, the IC50, lay at 98 nM. On to `Cc1cc(-n2ccc(NC(=O)[C@H]3CCCN3C(=O)Nc3ccc(C(F)(F)F)cc3)n2)ccc1C(N)=O` [Example 49], for which, under setting [1], the IC50 stood at 240 nM. Turning to `Cc1cc(-n2ccc(NC(=O)[C@H]3CCCN3C(=O)Nc3ccc(C4CCC4)cc3)n2)ccc1C(=O)O` [Example 42, 4-[3-({1-[(4-cyclobutylphenyl)carbamoyl]-D-prolyl}amino)-1H-pyrazol-1-yl]-2-methylbenzoic acid], inhibition under setting [1] was half-maximal at 12 nM (IC50). Same read-out and setting: the value for `CC(C)c1ccc(NC(=O)N2CCC[C@@H]2C(=O)Nc2ccn(-c3ccc(C(=O)O)c(F)c3)n2)cc1` [Example 32, 2-fluoro-4-{3-[(1-{[4-(propan-2-yl)phenyl]carbamoyl}-D-prolyl)amino]-1H-pyrazol-1-yl}benzoic acid] was 280 nM; that for `Cc1cc(-n2ccc(NC(=O)[C@H]3CCCN3C(=O)Nc3ccc(C4CCCC4)cc3)n2)ccc1C(=O)O` [Example 45, 4-[3-({1-[(4-cyclopentylphenyl)carbamoyl]-D-prolyl}amino)-1H-pyrazol-1-yl]-2-methylbenzoic acid] was 8.4 nM; that for `Cc1c(C(=O)O)ccc(-n2ccc(NC(=O)[C@H]3CCCN3C(=O)COc3ccc(C(F)(F)F)cc3)n2)c1F` [Example 64, 3-fluoro-2-methyl-4-{3-[(1-{[4-(trifluoromethyl)phenoxy]acetyl}-D-prolyl)amino]-1H-pyrazol-1-yl}benzoic acid] was 28 nM.
